Experimental data published in publication PMC4894652 (Neuron, 2016).

These molecules were tested against T1, DmSLC22A (CG7442) (Drosophila melanogaster, UniProt Q7JRD5). Settings: labelled compound; doxycycline-induced vs un-induced cells.
T1 sequence (Q7JRD5 1-568): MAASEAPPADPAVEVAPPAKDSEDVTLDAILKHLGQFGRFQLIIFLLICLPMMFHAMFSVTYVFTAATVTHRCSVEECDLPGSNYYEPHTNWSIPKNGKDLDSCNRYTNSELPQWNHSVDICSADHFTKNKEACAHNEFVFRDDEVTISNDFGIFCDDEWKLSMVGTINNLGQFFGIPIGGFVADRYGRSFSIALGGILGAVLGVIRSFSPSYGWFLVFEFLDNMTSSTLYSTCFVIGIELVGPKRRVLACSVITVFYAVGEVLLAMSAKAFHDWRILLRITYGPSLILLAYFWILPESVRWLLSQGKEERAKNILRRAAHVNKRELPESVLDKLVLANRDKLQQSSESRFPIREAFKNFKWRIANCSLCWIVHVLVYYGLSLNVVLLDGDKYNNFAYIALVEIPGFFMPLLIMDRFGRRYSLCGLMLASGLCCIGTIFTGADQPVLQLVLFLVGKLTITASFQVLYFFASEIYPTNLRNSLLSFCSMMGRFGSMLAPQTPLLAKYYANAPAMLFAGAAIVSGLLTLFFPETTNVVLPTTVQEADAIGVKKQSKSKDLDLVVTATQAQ
Format: cell-based

SMILES | apparent Km
C[N+](C)(C)CC(=O)[O-] [betaine] | Table S2 lists the apparent Km and Vmax values for each substrate
CC(=O)OCC[N+](C)(C)C [acetylcholine] | choline and acetylcholine are transported with low μM Km values
NCCc1c[nH]cn1 [histamine] | Table S2 lists the apparent Km and Vmax values for each substrate
CC[N+](CC)(CC)CC [TEA] | Table S2 lists the apparent Km and Vmax values for each substrate
NCCc1c[nH]c2ccc(O)cc12 [serotonin] | Table S2 lists the apparent Km and Vmax values for each substrate
C[N+](C)(C)CCO [choline] | choline and acetylcholine are transported with low μM Km values
C[n+]1ccc(-c2ccccc2)cc1 [MPP] | Table S2 lists the apparent Km and Vmax values for each substrate
